US11564913B2, “Compositions and methods for treating cancer” (Children's Hospital Medical Center, priority 2019, dated 2023)
pEC50: −log10 of the molar value.

Key:
Type in all cases: cell-based
[1] = system: Nalm-1 cells; experiment: Cell survival, trypan blue exclusion
Procedure: (B) IODVA1-dependent survival curves of empty vector (red circles) or p190-BCR-ABL1 (black circles) expressing Ba/F3 cells and of Nalm-1 cells. […] (C) p190-BCR-ABL1 (grey line) or Mieg3 (black line) expressing Ba/F3 cells were allowed to grow for 1 day, treated with IODVA1 (IO1, 1 μM) for 1 day, and washed (black arrow). Cells were counted for 7 days using trypan blue exclusion. (D) Ba/F3 cells stably expressing p190-BCR-ABL1 were subjected to colony formation assay in soft agar (0.25% Noble Agar in RPMI/FBS/IL-3) in the presence of DMSO or IODVA1 (1 or 10 μM). Colonies were allowed to form for 10 days then stained with iodonitrotetrazolium (1 mg/mL). Data are representative of at least three independent experiments in triplicates. Note the smaller colony size in 1 μM IODVA1 treatment group. (E) Leukemic burden (%) of treated mice before treatment (left upper panel) and at the indicated treatment time was analyzed by flow cytometry of bone marrow aspirates as population containing B220^+/CD43^+ pro-B cells. (F) Count (%) of residual leukemic (EGFP^+-BCR-ABL1) cells in peripheral blood at weeks 3 and 5 for the secondary transplant mice from FIG. 1D. […]
IODVA1 specifically targets BCR-ABL B-ALL cells in vitro. […] We then assessed survival of p190-BCR-ABL-transformed CD34^+ cells in the presence of IODVA1 by trypan blue exclusion. […]

[2] = system: MCF7 cells; experiment: Cell spreading on fibronectin; details: 30 min exposure, serum-free
Procedure: (§1) FIG. 6: IODVA1 inhibits cell-substratum and cell-cell interactions. (A) IODVA1 impedes spreading of MCF7 and MDA-MB-231 cells on fibronectin. MCF7, T47D, and MDA-MB-231 cells were incubated on fibronectin coated coverslips for 10 min, then further incubated with the indicated concentrations of IODVA1 for 30 min in serum-free media, fixed and observed by bright field microscopy. Areas of single cells were calculated from 6 random fields (no less than 300 cells total per treatment group). Results shown are mean±s.e.m. of a single experiment and are representative of three independent experiments. (B) Effects of IODVA1 treatment on spheroid formation in MCF10A, MCF7, T47D, and MDA-MB-231 cells. […] Aggregates and spheroids were dissociated with accutase and trituration, and the number of live cells was determined by trypan blue exclusion. […]
(§2) Applicants assessed if IODVA1 interferes with cell spreading on the extracellular matrix, an event that is also governed by the rearrangement of the actin cytoskeleton. […] No changes in the area in T47D cells were detected, although more rounded cells in the presence of IODVA1 were observed.
(§3) For cell spreading, MDA-MB-231, MCF7 and T47D were seeded on fibronectin-coated coverslips in serum-free media. […] Six random fields were imaged under 20× objective and cell area of individual cells were quantified to assess the degree of spreading (ImageJ). […]

[3] = system: T47D cells; experiment: Cell spreading on fibronectin; details: 0-3 μM, 30 min
Procedure: as §1, §2, §3

With `OC1(c2ccccn2)N=C(Nc2nc3ccccc3[nH]2)N=C1c1ccccn1` (stereo not drawn) [IODVA1, (Z)-2-((1H-benzo[d]imidazol-2-yl)imino)-4,5-di(pyridin-2-yl)-2,5-dihydro-1H-imidazol-5-ol] the pEC50 [1] was 6.17, the “concentration at which spreading is interfered with (decrease in cell area)” value [2] was 0.3 µM and the “changes in cell area” value [3] was “No changes”.
